# Data as given in patent US20250011272A1, “LONG-CHAIN COMPOUND THAT ACTS ON ACLY, PREPARATION METHOD THEREFOR AND USE THEREOF” (SHANGHAIINSTITUTE OF MATERIA MEDICA, CHINESE ACADEMY OF …, priority 2021, published 2025).
# Like-named read-outs stand apart in the source and are kept apart here.
# Key:
# Human ACLY = Human ACLY (Homo sapiens (Human), UniProt P53396); assay: ACLY enzyme activity test (ADP-Glo luminescence); assay type: biochemical; conditions: 37° C., 30 minutes
# Text: • Instrument: Envision (PerkinElmer, USA) • Materials: Acl—human ACLY/acly/ATP citrate lyase protein (His tag) was purchased from Sino Biological; kinase assay kit ADP-GLO (promega #V9102).
# Experimental principle: In this experiment, the ATP-dependent citrate lyase ACL catalyzes the conversion of citrate to acetyl coenzyme A, which in turn produces malonyl coenzyme A, a precursor molecule for fatty acid synthesis, and this reaction is accompanied by ATP depletion, so the change in ATP can be detected using the ADP-Glo Kinase Assay (#V9102) to indirectly reflect the inhibitory effect of the compound on the enzymatic activity of ACL. This kinase detection kit can quantitatively determine the amount of ADP catalyzed by ACLY enzyme activity. (First, the compound, the enzyme and the substrate are incubated at 37 degrees for half an hour, ADP-Glo& #V9102; reagent is added and incubated for half an hour to terminate the reaction and consume the remaining ATP; then the kinase detection reagent is added (which converts the ADP to ATP while also detecting the newly synthesized ATP using the coupled […] reaction) and incubated for half an hour. The value is read by using Envision.
# Experimental method: ADP Glo luminescence method was used for determination. It reflects the activity of ACLY enzyme by quantitatively detecting the amount of ADP, and the enzymatic reaction catalyzed by ACLY is proportional to the amount of ADP detected by the luminescent signal. Firstly, the compound is diluted with 10% DMSO, and then […] of compound dilution is added to a 5 μl reaction system, so that the final reaction system has a DMSO content of 2%. The enzymatic reaction catalyzed by ACLY was carried out at 37° C. for 30 minutes. 5 μl reaction mixture contained the following components: 40 mM Tris, pH 8.0, 10 mM MgCl2, 5 mM DTT, ATP, CoA, sodium citrate, and ACLY. After the enzymatic reaction was complete, 2.5 μl of ADP Glo reagent was added to each reaction system and incubated at room temperature for 1 hour. Afterwards, 5 μl of kinase detection reagent was added and incubated at room temperature for 30 minutes. The luminous signal was detected using Envision (PerkinElmer, USA).
# Data processing: For compound, the activity dose dependent relationship was tested. IC50 value was obtained by non-linear fitting of sample concentration based on sample activity. The software used for calculation was Graphpad Prism 7, and the model used for fitting was sigmoid dose response (variable slope). For most inhibitor screening models, the bottom and top of the fitting curve were set to 0 and 100. In general, each sample is set with multiple wells (n≥2) during testing, which are represented in the results as Standard Deviation (SD) or Standard Error (SE).
# A549 cells = assay: MTS cell proliferation assay, A549; assay type: cell-based; conditions: Homo sapiens, A549, 72 hours, 1% FBS, read-out: IC50, inhibition of proliferation, A549
# Text: (§1) Experimental materials: NCI-H358 cells (H358, human non-small cell lung cancer cells) were purchased from the cell bank/stem cell bank of the Chinese Academy of Sciences; RPMI-1640 culture medium (GIBCO, product number 3180002), and human tumor cell non-small cell lung cancer cell A549 were gifted by the research group of researcher Li Jia from SHANGHAI INSTITUTE OF MATERIA MEDICA, CHINESE ACADEMY OF SCIENCES. CellTier 96® The Aquarius One Solution Cell Promotion Assay (MTS) was purchased from Promega #G3581.
# Experimental principle: CellTier 96 ® AQueous One Solution Cell Proliferation Assay (MTS) colorimetric method was used to detect cell proliferation. […] The amount of formazan determined by absorbance at 490 nm is directly proportional to the number of live cells in culture. […]
# Cell survival rate was detected by using MTS method, that is, adherent cells growing in logarithmic phase were digested with 0.025% trypsin, and counted; 80 μl cells were inoculated into a 96 well plate at a density of 3000 cells/well for A549 and 5000 cells/well for H358 (all cultured under 1% FBS conditions), and grown overnight in a 5% CO2 and 37° C. incubator. […]
# The experimental results were fitted to the IC50 using Graphpad Prism 7. […] The results were expressed as Standard Deviation (SD) or Standard Error (SE).
# NCI-H358 cells = assay: MTS cell proliferation assay, H358; assay type: cell-based, human; conditions: 1% FBS, read-out: IC50, inhibition of proliferation, H358
# Text: as §1
# (§2) Experimental principle: CellTier 96 ® AQueous One Solution Cell Proliferation Assay (MTS) colorimetric method was used to detect cell proliferation. This analysis method is based on the tetrazole compound (3-(4,5-dimethylthiazol-2-yl)-5-(3-carboxymethoxyphenyl)-2-(4-sulfophenyl)-2H-tetrazolium, internal salt; MTS). The conversion of yellow MTS to blue purple water-soluble formazan is catalyzed by dehydrogenase, which exists in living cells with metabolic activity; Dead cells cannot complete the transformation from MTS to formamide. The amount of formazan determined by absorbance at 490 nm is directly proportional to the number of live cells in culture.
# (§3) Sample processing: Dissolve the sample in DMSO and store it at low temperature.
# (§4) Cell survival rate was detected by using MTS method, that is, adherent cells growing in logarithmic phase were digested with 0.025% trypsin, and counted; 80 μl cells were inoculated into a 96 well plate at a density of 3000 cells/well for A549 and 5000 cells/well for H358 (all cultured under 1% FBS conditions), and grown overnight in a 5% CO2 and 37° C. incubator. Each compound was diluted with a three-fold concentration gradient, eight concentrations were tested, and three wells were set for each concentration. 20 μl of the diluted compounds was added to the corresponding cell wells. Adherent cells A549 and H358 were cultured in a 5% CO2 and 37° C. incubator for 72 hours; 20 μl of MTS was added separately and incubated for 2 hours in a 5% CO2 and 37° C. incubator. Molecular Device VersaMax was used to test the light absorption value at 490 nm (L1), with a reference wavelength of 690 nm (L2). The (L1−L2) values were plotted against different concentrations of inhibitors and IC50 was obtained by fitting the formula.
# (§5) The experimental results were fitted to the IC50 using Graphpad Prism 7. The model used for fitting was log(inhibitor) vs Response—variable slop, and the results of each assay were equipped with triple replicate wells to ensure the accuracy of the experiment. The results were expressed as Standard Deviation (SD) or Standard Error (SE).
# breast cancer cell MCF-7 = assay: MTS cell proliferation assay, MCF-7; assay type: cell-based; conditions: MCF-7, MTS, read-out: IC50, inhibition of proliferation, MCF-7
# Text: as §2, §3, §4, §5
# (§6) Similarly, the antiproliferative assays of the compounds on pancreatic cancer cell line ASPC-1, human pancreatic cancer cell MIA-PACA and breast cancer cell MCF-7 were performed as above.
# [1] = test system: pancreatic cancer cell line ASPC-1; assay: MTS cell proliferation assay, ASPC-1; assay type: cell-based; conditions: ASPC-1, MTS, read-out: IC50, inhibition of proliferation, ASPC-1
# Text: as §2, §3, §4, §5, §6
# [2] = test system: human pancreatic cancer cell MIA-PACA; assay: MTS cell proliferation assay, MIA-PACA; assay type: cell-based
# Text: as §2, §3, §4, §5, §6
# [3] = Homo sapiens, NCI-H358, H358, 72 hours
# [4] = Homo sapiens, MIA PaCa-2, read-out: IC50, inhibition of proliferation, MIA-PACA
# Human ACLY, sequence (P53396 whole entry): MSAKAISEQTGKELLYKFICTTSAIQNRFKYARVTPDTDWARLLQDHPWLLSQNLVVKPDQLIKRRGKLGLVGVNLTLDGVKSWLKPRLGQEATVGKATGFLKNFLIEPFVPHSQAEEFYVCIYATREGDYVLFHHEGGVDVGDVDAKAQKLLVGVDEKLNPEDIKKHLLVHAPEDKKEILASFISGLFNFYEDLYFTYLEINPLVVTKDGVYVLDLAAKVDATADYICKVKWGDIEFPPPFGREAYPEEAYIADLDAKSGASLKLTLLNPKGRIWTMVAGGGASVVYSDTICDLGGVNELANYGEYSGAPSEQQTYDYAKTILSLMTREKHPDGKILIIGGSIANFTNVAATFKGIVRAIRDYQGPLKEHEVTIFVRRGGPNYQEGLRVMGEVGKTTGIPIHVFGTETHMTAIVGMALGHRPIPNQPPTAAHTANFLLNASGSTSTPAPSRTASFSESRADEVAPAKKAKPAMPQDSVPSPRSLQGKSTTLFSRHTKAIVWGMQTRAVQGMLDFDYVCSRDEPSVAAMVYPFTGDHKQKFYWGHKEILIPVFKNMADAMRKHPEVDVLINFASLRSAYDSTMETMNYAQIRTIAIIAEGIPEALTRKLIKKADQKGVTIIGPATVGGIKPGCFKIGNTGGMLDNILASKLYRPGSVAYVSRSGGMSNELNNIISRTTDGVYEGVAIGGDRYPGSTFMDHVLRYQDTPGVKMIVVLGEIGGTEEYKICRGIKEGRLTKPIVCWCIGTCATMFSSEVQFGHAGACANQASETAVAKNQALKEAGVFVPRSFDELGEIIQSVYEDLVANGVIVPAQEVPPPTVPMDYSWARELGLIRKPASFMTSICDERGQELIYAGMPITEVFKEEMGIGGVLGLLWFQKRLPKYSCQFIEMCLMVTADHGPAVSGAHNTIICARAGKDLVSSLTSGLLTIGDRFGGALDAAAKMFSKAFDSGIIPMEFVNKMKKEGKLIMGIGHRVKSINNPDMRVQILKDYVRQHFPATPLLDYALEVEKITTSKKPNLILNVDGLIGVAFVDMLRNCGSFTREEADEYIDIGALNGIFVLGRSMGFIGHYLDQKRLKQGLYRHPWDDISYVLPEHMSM
IC50 (Human ACLY) [µM],Compound,also measured
1.7 ± 0.3,CC(CCCCCCC=CCCCCCCC(C)(C(=O)O)c1ccccc1)(C(=O)O)c1ccccc1 (centres unmarked) [Compound M1],
2.9 ± 0.95,O=C(O)C1(CCCCCC/C=C\CCCCCCC2(C(=O)O)CC=CC2)CC=CC1 [Compound M2],
1 ± 0.13,O=C(O)C1(CCCCCC/C=C\CCCCCCCC2(C(=O)O)CC=CC2)CC=CC1 [Compound M3],
22.6 ± 2.7,O=C(O)C1(CCCCCC/C=C\CCCCCCC2(C(=O)O)CCCC2)CCCC1 [Compound M4],
1.5 ± 0.45,O=C(O)C1(CCCCCC/C=C\CCCCCCC2(C(=O)O)C=CCC2)C=CCC1 (centres unmarked) [Compound M5],"IC50 (A549 cells): 12.5 ± 1.2 µM; IC50 (NCI-H358 cells; [3]): 23.6 ± 1.9 µM; IC50 (breast cancer cell MCF-7; Homo sapiens, MCF7): 31.8 ± 1.7 µM; IC50 ([1]; Homo sapiens, ASPC1): 27.3 ± 0.8 µM; IC50 [2, 4]: 13.5 ± 18 µM"
5.3 ± 0.98,O=C(O)C1(CCCCCC/C=C\CCCCCCC2(C(=O)O)CC=CCC2)CC=CCC1 (centres unmarked) [Compound M6],
4.1 ± 1.7,C=CC(C)(CCCCCC/C=C\CCCCCCC(C)(C=C)C(=O)O)C(=O)O (centres unmarked) [Compound M7],
11.2 ± 1.61,CC(CCCC/C=C\CCCCCC(C)(C(=O)O)c1ccccc1)(C(=O)O)c1ccccc1 (centres unmarked) [Compound M9],
1.9 ± 0.2,C=CC(C)(CCCCCC/C=C\CCCCCCCC(C)(C=C)C(=O)O)C(=O)O (centres unmarked) [Compound M10],
1.9 ± 0.31,CC(CCCCCC/C=C\CCCCCCCC(C)(C(=O)O)c1ccccc1)(C(=O)O)c1ccccc1 (centres unmarked) [Compound M11],
3.9 ± 0.2,O=C(O)C1(CCCCCC/C=C\CCCCCCCC2(C(=O)O)CC=CCC2)CC=CCC1 (centres unmarked) [Compound M12],
2.7 ± 0.8,O=C(O)C1(CCCCCC/C=C\CCCCCCCC2(C(=O)O)C=CCC2)C=CCC1 (centres unmarked) [Compound M13],
7 ± 0.16,O=C(O)C1(CCCCC/C=C\CCCCCCC2(C(=O)O)C=CCC2)C=CCC1 (centres unmarked) [Compound M14],
52.2 ± 0.27,CC(CCCC/C=C/CCCCCC(C)(C(=O)O)c1ccccc1)(C(=O)O)c1ccccc1 (centres unmarked) [Compound M15],
3.1 ± 1.3,O=C(O)C1(CCCCCCC=CCCCCCCC2(C(=O)OCCc3ccc(Cl)cc3Cl)C=CCC2)C=CCC1 (centres unmarked) [Compound M19],"IC50 (NCI-H358 cells; H358, 72 hours): 3.5 ± 0.4 µM; IC50 (breast cancer cell MCF-7): 3.9 ± 0.5 µM; IC50 [1]: 2.7 ± 1 µM; IC50 ([2]; read-out: IC50, inhibition of proliferation, MIA-PACA): 1.9 ± 0.5 µM"
3.5 ± 1.7,CCOC(=O)C1(CCCCCC/C=C\CCCCCCC2(C(=O)O)C=CCC2)C=CCC1 (centres unmarked) [Compound M20],

IC50 (Human ACLY) [µM],Compound,also measured
3.8 ± 0.83,COC(=O)C1(CCCCCC/C=C\CCCCCCC2(C(=O)O)C=CCC2)C=CCC1 (centres unmarked) [Compound M21],
3.3 ± 0.72,O=C(O)C1(CCCCCC/C=C\CCCCCCC2(C(=O)OCCc3ccccc3F)C=CCC2)C=CCC1 (centres unmarked) [Compound M23],
5.5 ± 1.9,O=C(O)C1(CCCCCC/C=C\CCCCCCC2(C(=O)OCc3ccc(Cl)cc3Cl)C=CCC2)C=CCC1 (centres unmarked) [Compound M24],
4 ± 0.86,O=C(O)C1(CCCCCC/C=C\CCCCCCC2(C(=O)OCCc3ccc(F)cc3)C=CCC2)C=CCC1 (centres unmarked) [Compound M25],"IC50 (NCI-H358 cells; [3]): 5.6 ± 0.5 µM; IC50 (breast cancer cell MCF-7; Homo sapiens, MCF7): 5.7 ± 1.5 µM; IC50 ([1]; Homo sapiens, ASPC1): 29.2 ± 11.4 µM; IC50 [2, 4]: 11.9 ± 2.7 µM"
7.7 ± 0.39,O=C(O)C1(CCCCCC/C=C\CCCCCCC2(C(=O)OCCc3ccccc3)C=CCC2)C=CCC1 (centres unmarked) [Compound M27],
17 ± 2.5,O=C(O)C1(CCCCCC/C=C\CCCCCCC2(C(=O)OCCCc3ccc(Cl)cc3Cl)C=CCC2)C=CCC1 (centres unmarked) [Compound M28],
5.8 ± 1.8,O=C(O)C1(CCCCCC/C=C\CCCCCCC2(C(=O)OCCc3ccc4ccccc4c3)C=CCC2)C=CCC1 (centres unmarked) [Compound M29],"IC50 (NCI-H358 cells; [3]): 9 ± 1.9 µM; IC50 (breast cancer cell MCF-7; Homo sapiens, MCF7): 6.5 ± 0.4 µM; IC50 ([1]; Homo sapiens, ASPC1): 28 ± 10.1 µM; IC50 [2, 4]: 12.8 ± 1.6 µM"
19.9 ± 7.8,O=C(O)C1(CCCCCC/C=C\CCCCCCC2(C(=O)OCCc3ccc(Cl)cc3)C=CCC2)C=CCC1 (centres unmarked) [Compound M30],
8.5 ± 3.2,O=C(O)C1(CCCCCC/C=C\CCCCCCC2(C(=O)OCCc3ccccc3Cl)C=CCC2)C=CCC1 (centres unmarked) [Compound M31],
4.6 ± 1.3,COc1ccc(CCOC(=O)C2(CCCCCC/C=C\CCCCCCC3(C(=O)O)C=CCC3)C=CCC2)cc1 (centres unmarked) [Compound M32],
3.3 ± 0.45,CC[C@H](C)n1cc(C)c2c(C(=O)NCc3c(C)cc(C)[nH]c3=O)cc(-c3ccc(N4CCN(C(=O)CCCSC(=O)C(C)(C)CCCCC/C=C\CCCCCC(C)(C)C(=O)O)CC4)nc3)cc21 [Compound M33],
10.2 ± 0.3,Cc1ncsc1-c1ccc([C@H](C)NC(=O)[C@@H]2C[C@@H](O)CN2C(=O)[C@@H](NC(=O)C(C)(C)CCCCCC/C=C\CCCCCCC(C)(C)C(=O)O)C(C)(C)C)cc1 [Compound M34],
0.9 ± 0.1,O=C(O)C1(CCCCCCC(=C(CCCCCCC2(C(=O)O)C=CCC2)c2ccccc2)c2ccccc2)C=CCC1 (centres unmarked) [Compound M35],
4.57 ± 0.41,CC(C)(CCCCCCC=C(CCCCCCC(C)(C)C(=O)O)c1ccc(C(=O)N2CCN(c3ccccn3)CC2)cc1)C(=O)O [Compound M36],
5.21 ± 0.27,CC(C)(CCCCCC/C=C(/CCCCCCC(C)(C)C(=O)O)c1ccc(C(=O)N2CCN(c3ccccn3)CC2)cc1)C(=O)O [Compound M37],

Compound,IC50 (Human ACLY) [µM],also measured
"COC(=O)c1cc(Cl)c(O)c(S(=O)(=O)Nc2cc(-c3ccccc3)c(F)cc2F)c1 [NDI-091143, reference compound]",0.0021 ± 0.0004,"IC50 (NCI-H358 cells; [3]): 50.2 ± 27.7 µM; IC50 (breast cancer cell MCF-7; Homo sapiens, MCF7): 84.8 ± 45.3 µM; IC50 ([1]; Homo sapiens, ASPC1): 83.3 ± 34.7 µM; IC50 [2, 4]: 40.9 ± 14.3 µM"
